Assay results: patent US20260363977A1, “COSMETIC COMPOSITION FOR PREVENTING OR AMELIORATING SKIN DISEASES COMPRISING TRIBULUS TERRESTRIS-DERIVED COMPOUND AS ACTIVE INGREDIENT” (DONGGUK UNIVERSITY INDUSTRY-ACADEMIC COOPERATION FOUNDATION, priority 2022, published 2026)

Assays:
Format in all cases: cell-based
p16 (Ink4a) = assay: Western blot of p16 (Ink4a) expression in keratinocytes (anti-aging effect); details: 10 μM, 48 hours, compared to control group (CON), P<0.05, FIG. 4
Method: (§1) Keratinocytes used were isolated from normal adult skin tissues obtained through repeated cesarean section and circumcision. The cells were dispensed into EpiLife Medium, and bovine pituitary extract (BPE), bovine insulin (BI), hydrocortisone, human epidermal growth factor (EGF), and bovine transferrin (BT) were added and cultured. The cells that had undergone the 3rd~5th passage culture were used in the experiment. The pituitary extract, bovine insulin, hydrocortisone, human epidermal growth factor, and bovine transferrin were used by purchasing from Invitrogen.
(§2) In order to identify the skin whitening and anti-aging effects of 16 candidate materials in Example 1-2, for the skin whitening effect, each of the three types of cell models constructed in the Example 2-1 was treated with the 16 candidate materials at concentrations at which no cytotoxicity is shown in the melanocytes identified in Example 1-1 for 48 hours, and then Western blot was performed to measure the expression of tyrosinase. The experiment was repeated 4 times, and P<0.05 was determined to be significant. In addition, for analysis on the anti-aging effect, the keratinocytes were treated with the above 16 candidate materials for 48 hours each, and then Western blot was performed to measure the expression of p16 (Ink4a). The experiment was repeated 4 times, and P<0.05 was determined to be significant.

tyrosinase [1] = assay: Western blot of tyrosinase expression in CDH11 overexpressing keratinocyte / melanocyte co-culture model (with pCMV control gene model); details: 10 μM, 48 hours, compared to control group (CON), FIG. 3
Method: as §1
(§3) Melanocytes used were isolated from normal adult skin tissues obtained through repeated cesarean section and circumcision. […]
as §2, with “In addition, for analysis on the anti-aging effect, the keratinocytes were treated with the above 16 candidate materials for 48 hours each, and then Western blot was performed to measure the expression of p16 (Ink4a).” left out

Melanocytes = assay: MTT cytotoxicity assay in melanocytes; details: up to the treatment concentration of 10 μM, 48 hours, FIG. 1
Method: (§4) Melanocytes used were isolated from normal adult skin tissues obtained through repeated cesarean section and circumcision. Dispase 2.4U (#295 825; Roche, Mannheim, Germany) was treated for 1 hour to separate the epidermis, and 0.05% trypsin was treated for 10 minutes to isolate melanocytes. Afterwards, the cells were suspended in Medium 254, and the bovine pituitary extract (BPE), fetal bovine serum (FBS), hydrocortisone, basic fibroblast growth factor (bFGF), bovine transferrin (BT), heparin, and phorbol 12-myristate13-acetate (PMA, Invitrogen) were added and cultured. The cells that had undergone the 3rd~5th passage culture were used in the experiment.
In order to identify cytotoxicity of the 136 candidate materials, MTT assays were performed. Melanocytes were treated with the candidate materials by concentration (10, 50, and 100 μM) for 48 hours, and the cell viability was measured to determine the concentration range at which no cytotoxicity of each candidate material is observed.

tyrosinase [2] = assay: Western blot of intracellular tyrosinase expression in melanocytes (skin whitening effect); details: T13 at 10 μM, 48 hours, compared to control group (CON), repeated 4 times or more, FIG. 2
Method: as §4
In order to identify the skin whitening effect of the 136 candidate materials, Western blot was performed. After treating melanocytes with the candidate material at a concentration at which no cytotoxicity was shown in the melanocytes identified in Example 1-2 for 48 hours, intracellular tyrosinase expression was measured. The experiment was repeated 4 times or more.

tyrosinase; p16 (Ink4a) = assay: Combined analysis of skin whitening (tyrosinase in three cell models) and anti-aging (p16 in keratinocytes) effects; details: 5 of 16 candidate materials; non-cytotoxic concentrations; 48 hours
Method: Keratinocytes were seeded in a culture container at 2×10^5/ml, after 24 hours, pCMV plasmids containing one of three genes [arginase 2 (ARG2, NCBI Gene ID: 384), cadherin 11 (CDH11, NCBI Gene: 1009), and guanine deaminase (GDA, NCBI Gene: 9615)] were transfected into cells using Lipofectamine 2000 to induce overexpression, and after 4 hours of culture with Dulbecco's Modified Essential Medium (DMEM) culture medium without supplements, 0.5×10^5/ml melanocytes were mixed with the keratinocyte culture medium containing supplements and co-cultured in the same culture container. After 24 hours, the keratinocyte culture medium without supplements was replaced, and after 5 hours, the normal melanocytes were treated with the 16 candidate materials for 48 hours. […]
as §2, with “In addition, for analysis on the anti-aging effect, the keratinocytes were treated with the above 16 candidate materials for 48 hours each, and then Western blot was performed to measure the expression of p16 (Ink4a).” left out

tyrosinase [3] = assay: Western blot of tyrosinase expression in ARG2 overexpressing keratinocyte / normal melanocyte co-culture model (with pCMV control gene model); details: 10 μM, 48 hours, compared to control group (CON), P<0.05, FIG. 3
Method: as §1, §3
as §2, with “In addition, for analysis on the anti-aging effect, the keratinocytes were treated with the above 16 candidate materials for 48 hours each, and then Western blot was performed to measure the expression of p16 (Ink4a).” left out

tyrosinase [4] = assay: Western blot of tyrosinase expression in GDA overexpressing keratinocyte / melanocyte co-culture model (with pCMV control gene model); details: 10 μM, 48 hours, compared to control group (CON), P<0.05, FIG. 3
Method: as §1, §3
as §2, with “In addition, for analysis on the anti-aging effect, the keratinocytes were treated with the above 16 candidate materials for 48 hours each, and then Western blot was performed to measure the expression of p16 (Ink4a).” left out

COc1cc([C@@H](O)[C@H](CO)c2ccc(O)c(OC)c2)ccc1O [T13]
p16 (Ink4a) expression in keratinocytes (p16 (Ink4a)): significantly reduced | tyrosinase expression, CDH11 overexpressing co-cultured cell model (tyrosinase [1]; CDH11 model): tyrosinase expression was reduced | tyrosinase expression, control gene overexpressing co-cultured cell model (pCMV) (tyrosinase [1]; pCMV model of the CDH11 experiment): did not show a significant difference in expression | cytotoxicity in melanocytes (cell viability, MTT) (Melanocytes): did not show cytotoxicity | intracellular tyrosinase expression in melanocytes (tyrosinase [2]): significantly reduced | skin whitening and anti-aging effects shown together (tyrosinase; p16 (Ink4a)): skin whitening and anti-aging effects were shown together | tyrosinase expression, ARG2 overexpressing co-cultured cell model (tyrosinase [3]; ARG2 model, more distinct than in pCMV model): degree of reduction in tyrosinase expression was more distinct | tyrosinase expression, control gene overexpressing co-cultured cell model (pCMV) (tyrosinase [3]; pCMV model of the ARG2 experiment): significant decrease in tyrosinase expression | tyrosinase expression, GDA overexpressing co-cultured cell model (tyrosinase [4]; GDA model, more distinct than in pCMV model): degree of reduction in tyrosinase expression was more distinct | tyrosinase expression, control gene overexpressing co-cultured cell model (pCMV) (tyrosinase [4]; pCMV model of the GDA experiment): significant reduction in tyrosinase expression
